Laboratory results as given in ChEMBL document CHEMBL1153951, “Partial regeneration of beta-cells in the islets of Langerhans by Nymphayol a sterol isolated from Nymphaea stellata (Willd.) flowers” (2009).
Calls of active or inactive are those of the source.

Legend:
Rattus norvegicus [1] = assay: Antihyperglycemic activity in STZ-diabetic rat assessed as improvement in beta cell granulation at 50 mg/kg, po after 45 days by histopathological study; format: functional, organism-based; design: dose 50 mg/kg
Rattus norvegicus [2] = assay: Antihyperglycemic activity in po dosed STZ-diabetic rat assessed as lowering of fasting plasma glucose level after 45 days by colorimetry; format: functional
Rattus norvegicus [3] = assay: Antihyperglycemic activity in STZ-diabetic rat assessed as potentiation of insulin secretion from existing beta cells at 50 mg/kg, po after 45 days; format: functional, organism-based; design: dose 50 mg/kg
Rattus norvegicus [4] = assay: Antihyperglycemic activity in STZ-diabetic rat assessed as expansion of islet cells at 12.5 mg/kg, po after 45 days by histopathological study; format: functional, organism-based; design: dose 12.5 mg/kg
Rattus norvegicus [5] = assay: Antihyperglycemic activity in STZ-diabetic rat assessed as expansion of islet cells at 25 mg/kg, po after 45 days by histopathological study; format: functional, organism-based; design: dose 25 mg/kg
Rattus norvegicus [6] = assay: Antihyperglycemic activity in STZ-diabetic rat assessed as dilated islet cells at 12.5 mg/kg, po after 45 days by histopathological study; format: functional, organism-based; design: dose 12.5 mg/kg
Rattus norvegicus [7] = assay: Antihyperglycemic activity in STZ-diabetic rat assessed as dilated islet cells at 25 mg/kg, po after 45 days by histopathological study; format: functional, organism-based; design: dose 25 mg/kg
Rattus norvegicus [8] = assay: Antihyperglycemic activity in STZ-diabetic rat assessed as expansion of islet cells at 50 mg/kg, po after 45 days by histopathological study; format: functional, organism-based; design: dose 50 mg/kg
Rattus norvegicus [9] = assay: Antihyperglycemic activity in STZ-diabetic rat assessed as hyperplastic islet cells at 50 mg/kg, po after 45 days by histopathological study; format: functional, organism-based; design: dose 50 mg/kg
Rattus norvegicus [10] = assay: Antihyperglycemic activity in STZ-diabetic rat assessed as dilated islet cells at 600 ug/kg, po after 45 days by histopathological study; format: functional, organism-based
Rattus norvegicus [11] = assay: Antihyperglycemic activity in STZ-diabetic rat assessed as hyperplastic islet cells at 600 mg/kg, po after 45 days by histopathological study; format: functional, organism-based; design: dose 600 mg/kg
Rattus norvegicus [12] = assay: Antihyperglycemic activity in po dosed STZ-diabetic rat assessed as insulin containing beta-cells by immunohistochemical study; format: functional, organism-based

Measured: Activity

CCCC[C@@H](C)[C@H]1CC[C@H]2[C@@H]3CC=C4C[C@@H](O)CC[C@]4(C)[C@H]3CC[C@]12C [NYMPHAYOL]
78.05%: Rattus norvegicus [2]
active: Rattus norvegicus [1] | Rattus norvegicus [3] | Rattus norvegicus [4] | Rattus norvegicus [6] | Rattus norvegicus [12]
inactive: all other assays above
